Tests used:
LRRK2 (G2019S) = LRRK2 (G2019S) (Homo sapiens, UniProt Q5S007, G2019S); test: Off-target kinase panel, ADAPTA: LRRK2 (G2019S); assay type: biochemical; details: read-out: Estimated IC50 (uM) LRRK2 (G2019S)
Excerpt: (§1) The activity data was obtained in a panel of 265 and 264 for compounds 1-1 and CC-1, respectively, using the ZLYTE and ADAPTA assay methods indicated in the table below.
The Adapta universal kinase assay is a homogenous, fluorescent based immunoassay for the detection of ADP. In contrast to ATP depletion assays, the Adapta assay is highly sensitive to ADP formation such that a majority of the signal change occurs in the first 10-20% conversion of ATP to ADP. This makes the Adapta universal kinase assay well suited for use with low activity kinases.
The principle of the Adapta universal kinase assay is outlined below. The assay itself can be divided into two phases: a kinase reaction phase, and an ADP detection phase. In the kinase reaction phase, all components required for the kinase reaction are added to the well, and the reaction is allowed to incubate for 60 minutes. After the reaction, a detection solution consisting of a europium labeled anti-ADP antibody, an Alexa Fluor 647 labeled ADP tracer, and EDTA (to stop the kinase reaction) is added to the assay well. […]
ADP formation is determined by calculating the emission ratio from the assay well. The emission ratio is calculated by dividing the intensity of the tracer (acceptor) emission by the intensity of the Eu (donor) emission at 615 nm as shown in the equation below. […]
12. Read on fluorescence plate reader and analyze the data.

CLK2 = CLK2 (Homo sapiens, UniProt P49760); test: Off-target kinase panel, ZLYTE: CLK2; assay type: biochemical; details: read-out: Estimated IC50 (uM) CLK2
Excerpt: as §1
The ZLYTE biochemical assay employs a fluorescence-based, coupled-enzyme format and is based on the differential sensitivity of phosphorylated and non-phosphorylated peptides to proteolytic cleavage. The peptide substrate is labeled with two fluorophores—one at each end—that make up a Fluorescence Resonance Energy Transfer (FRET) pair.
In the primary reaction, the kinase transfers the gamma-phosphate of ATP to a single tyrosine, serine or threonine residue in a synthetic FRET-peptide. In the secondary reaction, a site-specific protease recognizes and cleaves non-phosphorylated FRET-peptides. Phosphorylation of FRET-peptides suppresses cleavage by the Development Reagent. […] A ratiometric method, which calculates the ratio (the Emission Ratio) of donor emission to acceptor emission after excitation of the donor fluorophore at 400 nm, is used to quantitate reaction progress, as shown in the equation below. […]
Both cleaved and uncleaved FRET-peptides contribute to the fluorescence signals and therefore to the Emission Ratio. The extent of phosphorylation of the FRET-peptide can be calculated from the Emission Ratio. […]
10. Read on fluorescence plate reader and analyze the data.

Sequence of LRRK2 (G2019S) (Q5S007 whole entry G2019S): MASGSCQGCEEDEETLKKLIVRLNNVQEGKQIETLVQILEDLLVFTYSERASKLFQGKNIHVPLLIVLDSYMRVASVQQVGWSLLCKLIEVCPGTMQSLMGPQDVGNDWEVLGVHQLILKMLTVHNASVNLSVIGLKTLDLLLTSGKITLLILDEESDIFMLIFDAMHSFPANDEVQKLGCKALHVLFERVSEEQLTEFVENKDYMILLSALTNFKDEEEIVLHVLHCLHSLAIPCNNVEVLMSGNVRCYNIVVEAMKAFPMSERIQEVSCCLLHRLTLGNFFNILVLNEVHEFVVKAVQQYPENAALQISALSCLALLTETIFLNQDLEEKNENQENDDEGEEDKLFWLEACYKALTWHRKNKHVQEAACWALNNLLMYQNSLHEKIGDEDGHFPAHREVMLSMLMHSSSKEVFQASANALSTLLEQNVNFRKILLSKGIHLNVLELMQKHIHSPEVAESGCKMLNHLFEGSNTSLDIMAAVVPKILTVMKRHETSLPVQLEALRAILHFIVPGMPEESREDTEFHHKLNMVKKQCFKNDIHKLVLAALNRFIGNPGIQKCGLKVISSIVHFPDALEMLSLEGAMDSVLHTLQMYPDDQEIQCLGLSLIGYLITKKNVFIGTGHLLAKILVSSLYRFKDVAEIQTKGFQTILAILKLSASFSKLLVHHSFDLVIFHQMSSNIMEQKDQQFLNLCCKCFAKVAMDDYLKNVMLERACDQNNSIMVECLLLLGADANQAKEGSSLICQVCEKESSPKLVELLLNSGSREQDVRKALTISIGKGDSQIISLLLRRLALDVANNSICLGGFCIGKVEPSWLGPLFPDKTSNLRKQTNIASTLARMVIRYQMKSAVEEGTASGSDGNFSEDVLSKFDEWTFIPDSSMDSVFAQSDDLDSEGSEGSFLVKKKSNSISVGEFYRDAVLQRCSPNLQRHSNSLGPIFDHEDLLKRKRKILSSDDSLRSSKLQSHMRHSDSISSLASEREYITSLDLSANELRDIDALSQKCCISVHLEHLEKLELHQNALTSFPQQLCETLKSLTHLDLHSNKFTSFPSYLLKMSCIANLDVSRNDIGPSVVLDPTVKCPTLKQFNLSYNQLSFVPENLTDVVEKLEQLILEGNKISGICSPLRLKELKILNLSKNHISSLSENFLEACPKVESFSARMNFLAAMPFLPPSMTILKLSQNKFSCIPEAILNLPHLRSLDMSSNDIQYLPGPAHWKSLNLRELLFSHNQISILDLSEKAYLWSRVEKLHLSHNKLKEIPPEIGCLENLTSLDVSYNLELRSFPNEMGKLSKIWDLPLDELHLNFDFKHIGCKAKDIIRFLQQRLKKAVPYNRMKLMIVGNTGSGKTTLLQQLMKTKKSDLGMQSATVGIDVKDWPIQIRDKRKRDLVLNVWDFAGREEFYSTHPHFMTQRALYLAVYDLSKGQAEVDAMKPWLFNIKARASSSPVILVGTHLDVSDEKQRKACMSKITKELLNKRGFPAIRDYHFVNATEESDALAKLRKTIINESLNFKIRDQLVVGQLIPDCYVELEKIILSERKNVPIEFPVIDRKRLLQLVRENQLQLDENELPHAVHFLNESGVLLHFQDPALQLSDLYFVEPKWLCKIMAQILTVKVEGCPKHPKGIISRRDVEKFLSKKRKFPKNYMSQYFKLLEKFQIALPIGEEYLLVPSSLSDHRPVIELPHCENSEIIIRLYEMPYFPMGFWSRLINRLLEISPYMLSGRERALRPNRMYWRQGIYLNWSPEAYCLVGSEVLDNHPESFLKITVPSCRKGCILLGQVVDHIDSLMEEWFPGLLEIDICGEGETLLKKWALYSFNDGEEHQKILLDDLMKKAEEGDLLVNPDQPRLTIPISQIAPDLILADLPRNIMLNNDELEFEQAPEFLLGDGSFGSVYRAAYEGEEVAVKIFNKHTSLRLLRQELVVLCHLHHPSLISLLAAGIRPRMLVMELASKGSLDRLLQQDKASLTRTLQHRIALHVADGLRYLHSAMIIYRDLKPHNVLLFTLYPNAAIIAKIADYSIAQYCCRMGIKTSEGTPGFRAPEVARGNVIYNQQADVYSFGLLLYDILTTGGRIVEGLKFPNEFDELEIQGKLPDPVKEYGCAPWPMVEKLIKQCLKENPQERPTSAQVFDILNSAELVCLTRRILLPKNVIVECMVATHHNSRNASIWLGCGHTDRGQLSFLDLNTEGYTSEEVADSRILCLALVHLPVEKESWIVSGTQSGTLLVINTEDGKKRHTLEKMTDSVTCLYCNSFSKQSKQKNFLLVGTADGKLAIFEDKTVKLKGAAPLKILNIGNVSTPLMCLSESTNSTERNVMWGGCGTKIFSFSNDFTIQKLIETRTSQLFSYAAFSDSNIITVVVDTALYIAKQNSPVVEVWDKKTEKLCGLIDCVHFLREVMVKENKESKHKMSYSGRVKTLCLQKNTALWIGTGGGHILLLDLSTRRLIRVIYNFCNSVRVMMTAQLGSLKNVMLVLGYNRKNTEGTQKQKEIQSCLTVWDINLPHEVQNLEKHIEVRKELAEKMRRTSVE
Sequence of CLK2 (P49760 whole entry): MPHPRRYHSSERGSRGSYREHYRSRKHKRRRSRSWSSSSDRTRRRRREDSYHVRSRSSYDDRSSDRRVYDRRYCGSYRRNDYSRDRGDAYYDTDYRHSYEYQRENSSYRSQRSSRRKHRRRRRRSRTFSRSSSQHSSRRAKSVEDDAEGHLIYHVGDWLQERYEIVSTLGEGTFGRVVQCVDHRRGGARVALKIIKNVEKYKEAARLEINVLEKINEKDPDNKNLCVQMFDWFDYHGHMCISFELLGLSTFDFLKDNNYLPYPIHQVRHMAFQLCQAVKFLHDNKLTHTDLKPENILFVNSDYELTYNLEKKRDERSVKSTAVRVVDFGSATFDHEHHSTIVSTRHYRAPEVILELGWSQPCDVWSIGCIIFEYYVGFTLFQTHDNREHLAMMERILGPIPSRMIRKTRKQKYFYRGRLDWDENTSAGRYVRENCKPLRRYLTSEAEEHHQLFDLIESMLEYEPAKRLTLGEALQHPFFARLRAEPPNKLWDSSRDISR

Row | Compound | IC50 (LRRK2 (G2019S)) [µM] | IC50 (CLK2) [µM]
1 | O=C1NC(=O)C2(CCN(c3cc(Cl)cc4[nH]ncc34)CC2)N1 [CC-1] | 0.94 | 0.35
2 | C[C@@H]1CN(c2cc(Br)cc3[nH]ncc23)CC[C@]12NC(=O)NC2=O (single isomer, unassigned) [Compound 1-1] | > 2 | 0.73
